# Results published in ChEMBL document CHEMBL5727788, “Amido-benzyl sulfone and sulfoxide derivates” (2020).
# pIC50: −log10 of the molar value.
# Target: Nicotinamide phosphoribosyltransferase (Homo sapiens, UniProt P43490)
# Experiment: Enzymatic Reaction Assay: The NAMPT enzymatic reactions were carried out in Buffer A (50 mM Hepes pH 7.5, 50 mM NaCl, 5 mM MgCl2, and 1 mM THP) in 96-well V-bottom plates. The compound titrations were performed in a separate dilution plate by serially diluting the compounds in DMSO to make a 100× stock. Buffer A (89 μL) containing 33 nM of NAMPT protein was added to 1 μL of 100× compound plate containing controls (e.g. DMSO or blank). The compound and enzyme mixture was incubated for 15 min at rt, then 10 μL of 10× substrate and co-factors in Buffer A were added to the test well to make a final concentration of 1 μM NAM, 100 μM 5-Phospho-D-ribose 1-diphosphate (PRPP), and 2.5 mM Adenosine 5′-triphosphate (ATP). The reaction was allowed to proceed for 30 min at rt, then was quenched with the addition of 11 μL of a solution of formic acid and L-Cystathionine to make a final concentration of 1% formic acid and 10 μM L-Cystathionine. Background and signal strength was determined by addition (or non-addition) of a serial dilution of NMN to a pre-quenched enzyme and cofactor mix.
# Chain of Nicotinamide phosphoribosyltransferase (P43490 whole entry): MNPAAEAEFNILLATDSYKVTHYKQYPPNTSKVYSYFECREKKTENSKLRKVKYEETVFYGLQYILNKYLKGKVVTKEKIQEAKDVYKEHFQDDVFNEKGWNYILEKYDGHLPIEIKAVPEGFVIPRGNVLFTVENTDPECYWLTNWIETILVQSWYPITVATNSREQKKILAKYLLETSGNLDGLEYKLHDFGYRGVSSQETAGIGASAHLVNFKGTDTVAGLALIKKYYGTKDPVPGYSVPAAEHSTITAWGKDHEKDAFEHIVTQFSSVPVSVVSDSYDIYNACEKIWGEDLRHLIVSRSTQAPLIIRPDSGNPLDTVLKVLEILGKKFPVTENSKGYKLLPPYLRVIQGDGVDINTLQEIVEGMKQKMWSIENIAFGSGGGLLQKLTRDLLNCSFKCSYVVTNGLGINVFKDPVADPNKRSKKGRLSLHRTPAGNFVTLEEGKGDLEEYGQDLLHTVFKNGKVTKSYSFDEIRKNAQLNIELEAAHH
row,SMILES,pIC50
1,CCN1CCC([S+]([O-])c2ccc(CNC(=O)c3ccc4nccn4c3)cc2)CC1 (stereo not drawn),7.36
2,O=C(NCc1ccc(S(=O)(=O)N2CC3COCC3C2)cc1)c1cnc2[nH]ncc2c1 (mixture of isomers),6.82
3,CC(C)N1CCN(S(=O)(=O)c2ccc(CNC(=O)c3ccc4nccn4c3)cc2)CC1,7.32
